From ChEMBL document CHEMBL6092154, “Design, synthesis, and evaluation of a novel TRAIL-activated HDAC6 inhibitor for the treatment of pulmonary fibrosis” (Bioorg Med Chem, 2024)
The source made the active and inactive calls. The calls are words filed in the database; no cut-off is given here.

Key:
[1] = Toxicity against bleomycin-induced pulmonary fibrosis C57BL/6J mouse model assessed as effect on liver morphological changes at 25 to 50 mg/kg, ig administered daily via gavage and measured on day 14 by Hematoxylin-Eosin staining based analysis; assay type: organism-based; settings: in vivo, po, 336 h, dose 25-50 mg/kg, time 14 day
[2] = system: Mus musculus; assay: (§1) Anti-pulmonary fibrosis activity in bleomycin-induced idiopathic pulmonary fibrosis C57BL/6J mouse model assessed as decrease in lung damage by measuring decrease in collagen deposition in lung at 25 to 50 mg/kg, ig administered daily via gavage and measured on day 14 by Hematoxylin-Eosin staining based analysis; assay type: functional, organism-based; settings: dose 25-50 mg/kg, time 14.0 day
[3] = system: Mus musculus; assay: as §1, with “deposition in lungs at 25” for “deposition in lung at 25”, “14 by Masson's trichrome staining based” for “14 by Hematoxylin-Eosin staining based”; assay type: functional, organism-based; settings: dose 25-50 mg/kg, time 14.0 day
[4] = Toxicity against silicosis C57BL/6J mouse model assessed as uric acid level in serum at 50 mg/kg, ig administered daily via gavage and measured on day 28; assay type: organism-based; settings: in vivo, po, 672 h, time 28 day
[5] = molecular target: T1, Protein deacetylase HDAC6 (Homo sapiens) (UniProt Q9UBN7); assay: Inhibition of HDAC6 in human RPMI-8226 cells assessed as increase in acetylated histone H4 level at 1 uM incubated for 24 hrs by western blot analysis; assay type: cell-based
T1 sequence (whole entry): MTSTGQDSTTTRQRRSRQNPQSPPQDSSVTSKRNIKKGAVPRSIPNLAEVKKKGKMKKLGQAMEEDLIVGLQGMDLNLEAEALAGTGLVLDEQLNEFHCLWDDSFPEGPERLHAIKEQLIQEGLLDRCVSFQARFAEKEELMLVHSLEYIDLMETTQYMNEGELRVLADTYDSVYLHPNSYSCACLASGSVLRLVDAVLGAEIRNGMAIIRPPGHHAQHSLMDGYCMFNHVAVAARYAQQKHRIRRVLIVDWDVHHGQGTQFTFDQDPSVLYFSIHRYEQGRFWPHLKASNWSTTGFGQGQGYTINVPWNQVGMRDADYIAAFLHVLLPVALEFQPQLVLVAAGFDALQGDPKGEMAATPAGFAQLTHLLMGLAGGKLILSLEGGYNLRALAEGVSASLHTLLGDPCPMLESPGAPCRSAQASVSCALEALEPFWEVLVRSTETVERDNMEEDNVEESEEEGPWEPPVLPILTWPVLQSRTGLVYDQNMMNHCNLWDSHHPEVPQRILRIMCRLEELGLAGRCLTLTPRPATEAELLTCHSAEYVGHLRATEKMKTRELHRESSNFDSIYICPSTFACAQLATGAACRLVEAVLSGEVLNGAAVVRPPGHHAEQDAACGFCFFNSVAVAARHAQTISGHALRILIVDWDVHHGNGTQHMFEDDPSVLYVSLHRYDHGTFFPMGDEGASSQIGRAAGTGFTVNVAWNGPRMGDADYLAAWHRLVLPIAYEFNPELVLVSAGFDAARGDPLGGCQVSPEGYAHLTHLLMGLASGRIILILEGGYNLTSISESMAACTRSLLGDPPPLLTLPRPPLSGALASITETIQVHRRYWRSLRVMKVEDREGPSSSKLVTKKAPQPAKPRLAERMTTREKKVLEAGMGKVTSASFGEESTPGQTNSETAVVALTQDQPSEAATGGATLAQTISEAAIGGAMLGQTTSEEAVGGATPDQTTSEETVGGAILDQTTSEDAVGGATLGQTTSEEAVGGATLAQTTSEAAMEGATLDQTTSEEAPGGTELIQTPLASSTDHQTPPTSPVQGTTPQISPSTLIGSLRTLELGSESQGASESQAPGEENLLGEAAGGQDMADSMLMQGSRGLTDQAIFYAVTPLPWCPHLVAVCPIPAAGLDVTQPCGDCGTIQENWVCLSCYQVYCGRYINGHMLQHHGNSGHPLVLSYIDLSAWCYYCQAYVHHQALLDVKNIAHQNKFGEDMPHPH

[6] = system: RPMI-8226; assay: Increase in TRAIL protein expression in human RPMI-8226 cells at 0.5 uM incubated for 24 hrs by western blot analysis; assay type: functional, cell-based
[7] = Toxicity against silicosis C57BL/6J mouse model assessed as effect on liver morphological changes at 50 mg/kg, ig administered daily via gavage and measured on day 28 by Hematoxylin-Eosin staining based analysis; assay type: organism-based; settings: in vivo, po, 672 h, time 28 day
[8] = molecular target: Histone deacetylase 1 (Homo sapiens) (UniProt Q13547); assay: Inhibition of HDAC1 (unknown origin) at 1 uM incubated for 30 mins by fluorometric analysis
[9] = system: Mus musculus; assay: as §1, with “Sirius red” for “Hematoxylin-Eosin”; assay type: functional, organism-based; settings: dose 25-50 mg/kg, time 14.0 day
[10] = system: NIH3T3; assay: Antiproliferative activity against mouse NIH/3T3 cells assessed as inhibition of cell growth incubated for 24 to 48 hrs by CCK8 assay; assay type: functional, cell-based
[11] = Toxicity against bleomycin-induced pulmonary fibrosis C57BL/6J mouse model assessed as increase AST index in serum at 50 mg/kg, ig administered daily via gavage and measured on day 14; assay type: organism-based; settings: in vivo, po, 336 h, time 14 day
[12] = molecular target: T2, Histone deacetylase 8 (Homo sapiens) (UniProt Q9BY41); assay: Inhibition of HDAC8 (unknown origin) at 1 uM incubated for 30 mins by fluorometric analysis
T2 sequence (whole entry): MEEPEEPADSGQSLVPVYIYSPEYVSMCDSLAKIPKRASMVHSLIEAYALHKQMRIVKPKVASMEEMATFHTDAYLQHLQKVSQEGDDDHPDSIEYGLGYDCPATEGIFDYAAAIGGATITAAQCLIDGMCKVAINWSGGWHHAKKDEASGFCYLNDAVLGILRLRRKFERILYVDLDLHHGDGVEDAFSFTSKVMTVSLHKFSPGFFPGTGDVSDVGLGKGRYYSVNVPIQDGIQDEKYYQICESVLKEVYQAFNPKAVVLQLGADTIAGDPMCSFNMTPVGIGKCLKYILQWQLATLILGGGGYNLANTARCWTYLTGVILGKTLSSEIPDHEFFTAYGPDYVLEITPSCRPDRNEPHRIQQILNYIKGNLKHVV

[13] = molecular target: T1, Protein deacetylase HDAC6 (Homo sapiens); assay: Inhibition of HDAC6 (unknown origin) at 1 uM incubated for 30 mins by fluorometric analysis
[14] = Toxicity against silicosis C57BL/6J mouse model assessed as effect on kidney morphological changes at 50 mg/kg, ig administered daily via gavage and measured on day 28 by Hematoxylin-Eosin staining based analysis; assay type: organism-based; settings: in vivo, po, 672 h, time 28 day
[15] = molecular target: T1, Protein deacetylase HDAC6 (Homo sapiens); assay: Inhibition of HDAC6 in human RPMI-8226 cells assessed as increase in acetylated alpha-tubulin level at 1 uM incubated for 24 hrs by western blot analysis; assay type: cell-based
[16] = molecular target: T3, Histone deacetylase 8 (Homo sapiens, UniProt Q9BY41); assay: Inhibition of HDAC8 (unknown origin) incubated for 30 mins by fluorometric analysis
T3 sequence (Q9BY41 whole entry): T2 sequence (whole entry)

[17] = Toxicity against silicosis C57BL/6J mouse model assessed as AST index in serum at 50 mg/kg, ig administered daily via gavage and measured on day 28; assay type: organism-based; settings: in vivo, po, 672 h, time 28 day

Chain of Histone deacetylase 1 (Homo sapiens) (Q13547 whole entry): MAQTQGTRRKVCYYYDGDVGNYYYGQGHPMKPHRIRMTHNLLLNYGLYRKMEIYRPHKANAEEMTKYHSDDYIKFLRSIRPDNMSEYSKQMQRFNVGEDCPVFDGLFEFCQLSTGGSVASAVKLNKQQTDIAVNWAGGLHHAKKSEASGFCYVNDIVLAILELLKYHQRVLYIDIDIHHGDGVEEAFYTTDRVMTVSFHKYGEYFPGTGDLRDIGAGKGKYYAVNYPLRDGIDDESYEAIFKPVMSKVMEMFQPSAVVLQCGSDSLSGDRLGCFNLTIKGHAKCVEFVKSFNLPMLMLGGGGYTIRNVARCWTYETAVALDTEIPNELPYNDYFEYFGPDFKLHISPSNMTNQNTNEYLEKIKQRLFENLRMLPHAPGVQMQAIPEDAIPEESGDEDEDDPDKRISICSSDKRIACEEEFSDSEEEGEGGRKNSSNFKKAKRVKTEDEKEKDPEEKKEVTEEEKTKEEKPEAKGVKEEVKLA

Structure (SMILES): O=C(NO)c1ccc(CN2C(=O)C3=C(CCN(Cc4cccc(Cl)c4)C3)N3CCN=C23)cc1
- Activity [1]: Non-toxic
- Activity [2]: Active
- Activity [3]: Active
- Activity [4]: Non-toxic
- inhibition [5]: Active; Intensity Of Increase Slightly Lower Than Positive Drug, Acy-1215
- Activity [6]: Active; Comparable Activity To 1 Um Compound Iic And Greater Activity Compared To 1 Um Chidamide, Acy-1215
- Activity [7]: Non-toxic
- inhibition [8]: 56.1%
- Activity [9]: Active
- IC50 [10]: 890 nM
- Activity [11]: Toxic
- inhibition [12]: 76.2%
- inhibition [13]: 94.8%
- Activity [14]: Non-toxic
- inhibition [15]: Active; Intensity Of Increase Slightly Lower Than Positive Drug, Acy-1215
- IC50 [16]: 333 nM
- Activity [17]: Non-toxic
